Test results published in patent US20020193374A1, “Reagents and methods for the diagnosis of CMV dissemination” (priority 2000, published 2002).
pIC50: −log10 of the molar value.

Assays:
US28 [1] = target: T1, US28 (Human cytomegalovirus, UniProt P69332); experiment: inhibition of 125I-fractalkine binding to US28 expressing cells; design: a mouse cell line stably expressing transfected US28 cDNA under the control of a CMV promoter; expressed in transfected cells; species or system human cytomegalovirus (CMV)
T1 sequence (P69332 whole entry): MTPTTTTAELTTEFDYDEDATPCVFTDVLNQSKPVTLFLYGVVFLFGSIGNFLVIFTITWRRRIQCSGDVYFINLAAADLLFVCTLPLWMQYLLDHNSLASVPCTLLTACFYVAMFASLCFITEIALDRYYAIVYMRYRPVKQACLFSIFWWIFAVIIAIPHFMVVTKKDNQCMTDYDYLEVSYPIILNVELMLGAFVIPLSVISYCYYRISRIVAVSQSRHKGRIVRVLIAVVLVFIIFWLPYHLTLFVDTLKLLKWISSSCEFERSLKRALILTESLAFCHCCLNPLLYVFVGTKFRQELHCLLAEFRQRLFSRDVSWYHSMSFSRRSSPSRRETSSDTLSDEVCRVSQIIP
Description: The US28 expressing cells used in most assays consist of a mouse cell line stably expressing transfected US28 cDNA under the control of a CMV promoter. These cells were cultured in IMDM-5% FBS, and harvested when the concentration was between 0.5-1.0×10^6 cells/mL. Some assays were performed with adherent human 293 cells (US28-293 cells) or membranes. The cells were centrifuged and resuspended in assay buffer (20 mM HEPES, 140 mM NaCl, 1 mM CaCl2, 5 mM MgCl2, and with 0.2% bovine serum albumin) to a concentration of 5.6×10^6 cells/mL. Using the Multi-Probe automated system, set up with 8 assay plates at a time, first 0.09 mL of cells was added to the assay plates containing the compounds. The final concentration of the compounds was 5 μg/mL each (1 μg/mL Comgenex). Then 0.09 mL of ^125I-fractalkine diluted in assay buffer (final concentration ˜[…], with ˜30,000 cpm per well) was added, the plates sealed and incubated for approximately 3 hours at 4 degrees C. on a shaker platform. The assay plates were harvested using Packard filter plates, pre-soaked in PEI solution, on the vacuum harvest apparatus. Scintillation fluid (35 μL) was added to all wells, the plates were sealed and counted in a Top Count scintillation counter. […]
S-(−)-IBZM (from the RBI division of Sigma Chemical Co., St. Louis, Mo., USA, Catalog No. I-139) was evaluated in the assays described in Examples 1 and 2. […]

chemokine receptors = experiment: binding specificity among chemokine receptors tested; details: all chemokine receptors tested
US28 [2] = target: T1, US28; experiment: reversibility of binding to US28, competition assay with fractalkine; design: a mouse cell line stably expressing transfected US28 cDNA under the control of a CMV promoter; expressed in transfected cells; species or system human cytomegalovirus (CMV); details: pre-incubated with US28 expressing cells at 0-10 μg/mL, removed by competition with fractalkine (FIG. 3)
Description: FIG. 3 illustrates the reversibility of IBZM binding to US28. In this figure, IBZM is pre-incubated with US28 expressing cells (at concentrations of 0-10 μg/mL) and removed by competition with fractalkine.
In this assay, IBZM is pre-incubated with US28 expressing cells (at concentrations of 0-10 μg/mL) and removed by competition with fractalkine (see FIG. 3).

US28 [3] = target: T1, US28; experiment: cytoplasmic calcium mobilization in US28-293 cells; type: cell-based, human cytomegalovirus (CMV); design: expressed in transfected cells; host or cells: human 293 cells (US28-293 cells); details: compound added before fractalkine (FIG. 2)
Description: For each test, 1×10^6 cells were incubated at 37° C. in the cuvette of a PTI spectrometer, and the ratio of 410/490 nm emission plotted over time (typically 2-3 minutes), with compounds added at 5 seconds, followed by fractalkine at 60 seconds. […] Compounds which inhibited fractalkine binding were tested in this assay for the effects on Ca^2+ in this system.
S-(−)-IBZM (from the RBI division of Sigma Chemical Co., St. Louis, Mo., USA, Catalog No. I-139) was evaluated in the assays described in Examples 1 and 2. The IC50 value was 0.6 μM.

Q: `CCN1CCC[C@H]1CNC(=O)c1c(OC)ccc(I)c1O` [IBZM, S(−)-3-Iodo-2-hydroxy-6-methoxy-N[(1-ethyl-2-pyrrolidinyl)methyl]benzamide] was tested. Which pIC50 (US28 [1]) did it give?
A: The pIC50 was 6.22.

Q: And the “specificity of binding among chemokine receptors” value (chemokine receptors)?
A: Its value is “bind specifically to US28”.

Q: What about the “reversibility of binding to US28” value (US28 [2]) of the same molecule?
A: Its value is “reversible”.

Q: And the “mode of action in calcium mobilization” value (US28 [3])?
A: The value was “competitive agonist”.
